Results from patent US9616129B2, “Compositions and methods for potentiating immune response, enhancing immunotherapy, and increasing vaccine potency” (Nitor Therapeutics, priority 2013, dated 2017).

How the values were obtained:
Assay type in all cases: cell-based
human TLR2 = biological target: T1, human TLR2 (Homo sapiens, UniProt O60603); assay: TLR ligand screening, NF-κB SEAP reporter in HEK293 cells expressing TLR2; settings: one concentration: Guanosine 100 uM, NTR001 10 uM, Inosine 100 uM; FIG. 2
T1 construct: expressed in transfected cells; host or cells: HEK293
T1 sequence (O60603 21-784): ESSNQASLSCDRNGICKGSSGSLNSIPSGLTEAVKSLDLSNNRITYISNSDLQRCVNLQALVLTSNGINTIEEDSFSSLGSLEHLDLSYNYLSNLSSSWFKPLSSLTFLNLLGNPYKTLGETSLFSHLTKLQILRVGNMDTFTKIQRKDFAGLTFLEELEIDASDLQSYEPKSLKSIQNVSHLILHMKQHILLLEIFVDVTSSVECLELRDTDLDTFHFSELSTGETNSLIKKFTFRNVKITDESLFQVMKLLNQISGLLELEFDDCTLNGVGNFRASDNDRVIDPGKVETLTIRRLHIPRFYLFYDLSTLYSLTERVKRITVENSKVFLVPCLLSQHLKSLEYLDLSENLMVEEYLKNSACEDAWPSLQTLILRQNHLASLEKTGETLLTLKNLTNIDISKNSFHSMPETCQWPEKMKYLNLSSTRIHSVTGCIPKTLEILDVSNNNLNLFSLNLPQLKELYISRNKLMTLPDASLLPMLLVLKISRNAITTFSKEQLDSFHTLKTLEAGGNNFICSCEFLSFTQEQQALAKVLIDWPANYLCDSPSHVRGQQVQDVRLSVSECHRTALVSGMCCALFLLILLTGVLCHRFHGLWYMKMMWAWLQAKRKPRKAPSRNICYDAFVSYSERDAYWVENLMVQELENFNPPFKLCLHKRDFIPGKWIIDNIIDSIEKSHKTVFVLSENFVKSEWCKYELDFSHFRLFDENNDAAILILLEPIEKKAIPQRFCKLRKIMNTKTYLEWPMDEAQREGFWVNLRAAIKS
Protocol: (§1) TLR stimulation is tested by assessing NF-κB activation in HEK293 cells expressing a given TLR. The Secreted Embryonic Alkaline Phosphatase (SEAP) reporter is under the control of a promoter inducible by the transcription factor NF-κB. This reporter gene allows the monitoring of signaling through the TLR, based on the activation of NF-κB. The compounds are evaluated at one concentration and compared to control ligands. This step is performed in triplicate.

human TLR7 = biological target: T2, human TLR7 (Homo sapiens, UniProt Q9NYK1); assay: TLR ligand screening, NF-κB SEAP reporter in HEK293 cells expressing TLR7; settings: one concentration: NTR001 10 uM, Inosine 100 uM; FIG. 2
T2 construct: expressed in transfected cells; host or cells: HEK293
T2 sequence (Q9NYK1 27-1049): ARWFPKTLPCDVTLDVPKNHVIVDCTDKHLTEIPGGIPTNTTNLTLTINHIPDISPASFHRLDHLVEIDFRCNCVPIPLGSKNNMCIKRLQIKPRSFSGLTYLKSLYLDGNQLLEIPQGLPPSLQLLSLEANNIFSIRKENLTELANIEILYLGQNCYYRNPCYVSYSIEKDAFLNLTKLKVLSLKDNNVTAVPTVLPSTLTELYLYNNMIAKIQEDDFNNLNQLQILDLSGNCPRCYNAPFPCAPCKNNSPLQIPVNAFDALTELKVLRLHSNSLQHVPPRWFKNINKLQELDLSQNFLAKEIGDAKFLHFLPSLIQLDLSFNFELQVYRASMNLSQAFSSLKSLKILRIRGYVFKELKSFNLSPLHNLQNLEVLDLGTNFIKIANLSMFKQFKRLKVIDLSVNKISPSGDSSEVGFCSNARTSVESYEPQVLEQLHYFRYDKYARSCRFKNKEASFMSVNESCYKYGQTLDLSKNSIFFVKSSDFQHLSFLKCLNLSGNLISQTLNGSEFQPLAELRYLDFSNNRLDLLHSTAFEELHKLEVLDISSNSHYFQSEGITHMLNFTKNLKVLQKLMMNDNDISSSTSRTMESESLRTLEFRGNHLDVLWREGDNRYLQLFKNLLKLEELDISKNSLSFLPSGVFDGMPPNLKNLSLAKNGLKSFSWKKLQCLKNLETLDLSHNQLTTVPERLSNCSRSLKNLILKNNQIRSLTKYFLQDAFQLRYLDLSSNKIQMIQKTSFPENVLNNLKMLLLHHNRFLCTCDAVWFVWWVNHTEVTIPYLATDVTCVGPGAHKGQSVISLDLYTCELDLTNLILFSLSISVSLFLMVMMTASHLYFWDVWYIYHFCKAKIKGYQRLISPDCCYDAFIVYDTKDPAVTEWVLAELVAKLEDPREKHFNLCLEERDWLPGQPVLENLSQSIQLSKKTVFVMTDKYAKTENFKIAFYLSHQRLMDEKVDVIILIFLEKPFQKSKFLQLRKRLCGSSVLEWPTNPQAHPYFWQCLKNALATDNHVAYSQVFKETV
Protocol: as §1

human TLR9 = biological target: T3, human TLR9 (Homo sapiens, UniProt Q9NR96); assay: TLR ligand screening, NF-κB SEAP reporter in HEK293 cells expressing TLR9; settings: one concentration: NTR001 10 uM, Inosine 100 uM; FIG. 2
T3 construct: expressed in transfected cells; host or cells: HEK293
T3 sequence (Q9NR96 26-1032): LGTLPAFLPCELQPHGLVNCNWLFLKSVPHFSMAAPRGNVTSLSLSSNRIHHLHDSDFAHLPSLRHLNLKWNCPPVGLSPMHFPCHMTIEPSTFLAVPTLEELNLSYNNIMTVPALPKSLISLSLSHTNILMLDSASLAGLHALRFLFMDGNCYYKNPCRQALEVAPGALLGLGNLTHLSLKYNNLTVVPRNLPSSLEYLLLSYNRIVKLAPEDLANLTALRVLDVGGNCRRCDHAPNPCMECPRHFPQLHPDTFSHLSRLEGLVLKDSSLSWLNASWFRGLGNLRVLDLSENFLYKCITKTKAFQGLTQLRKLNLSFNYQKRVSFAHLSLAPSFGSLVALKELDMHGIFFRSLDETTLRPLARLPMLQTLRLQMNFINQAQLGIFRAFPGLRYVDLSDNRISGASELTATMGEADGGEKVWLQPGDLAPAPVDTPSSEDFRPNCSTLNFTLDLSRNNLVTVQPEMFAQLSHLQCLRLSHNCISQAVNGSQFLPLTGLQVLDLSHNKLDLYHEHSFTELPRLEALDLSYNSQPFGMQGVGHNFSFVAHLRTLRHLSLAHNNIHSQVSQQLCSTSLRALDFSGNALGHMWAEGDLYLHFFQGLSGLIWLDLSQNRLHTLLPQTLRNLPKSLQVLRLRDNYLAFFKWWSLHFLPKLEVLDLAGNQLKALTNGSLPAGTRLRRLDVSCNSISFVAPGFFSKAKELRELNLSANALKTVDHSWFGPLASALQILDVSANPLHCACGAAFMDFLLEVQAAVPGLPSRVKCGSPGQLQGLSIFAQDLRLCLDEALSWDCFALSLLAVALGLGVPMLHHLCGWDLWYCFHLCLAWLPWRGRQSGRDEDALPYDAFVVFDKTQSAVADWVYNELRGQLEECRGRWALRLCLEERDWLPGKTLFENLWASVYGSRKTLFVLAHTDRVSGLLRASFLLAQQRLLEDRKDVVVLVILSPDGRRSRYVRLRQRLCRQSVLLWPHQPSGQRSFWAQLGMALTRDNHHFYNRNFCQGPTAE
Protocol: as §1

OC[C@H]1O[C@@H](n2cnc3c(O)ncnc32)[C@H](O)[C@@H]1O [Inosine]
do not exhibit a stimulatory effect: stimulatory effect on human TLR2 (NF-κB activation) (human TLR2) | stimulatory effect on human TLR7 (NF-κB activation) (human TLR7) | stimulatory effect on human TLR9 (NF-κB activation) (human TLR9)

O=c1[nH]cnc2c([C@@H]3N[C@H](CO)[C@@H](O)[C@H]3O)c[nH]c12 [NTR001, 7-[(2S,3S,4R,5R)-3,4-dihydroxy-5-(hydroxymethyl)-2-pyrrolidinyl]-1,5-dihydro-4H-pyrrolo[3,2-d]pyrimidin-4-one]
do not exhibit a stimulatory effect: stimulatory effect on human TLR2 (NF-κB activation) (human TLR2) | stimulatory effect on human TLR7 (NF-κB activation) (human TLR7) | stimulatory effect on human TLR9 (NF-κB activation) (human TLR9)
